In patent US20220119376A1, “TRICYCLIC COMPOUNDS ACTING ON CRBN PROTEINS” (CHIA TAI TIANQING PHARMACEUTICAL GROUP CO., LTD., priority 2018, published 2022):
Structures can show the parent of a compound that is named as a salt. Values belong to the compound of their own block, whether it stands above or below them.

Columns and labels:
MM.1S = assay: Antiproliferative effect in multiple myeloma cell line MM.1S (CellTiter-Glo); format: cell-based; settings: Homo sapiens, MM1.S, 120 h, MM.1S cells, 5 days of compound co-incubation
Description: (§1) Periodical passaging was performed, and cells in logarithmic growth phase were taken for plating. • (1) Cells were stained with trypan blue and viable cells were counted. • (2) The cell concentration was adjusted to an appropriate level. [table] • (3) 90 μL of cell suspension was added to each well in the culture plate and cell-free medium was added to the blank control wells according to the table above. • (4) The culture plate was incubated overnight in an incubator at 37° C./5% CO2 and 100% relative humidity. […] It was prepared freshly prior to use. […] After the compound or DMSO was added, the mixture was pipetted and mixed well. […] 10 μL of DMSO-cell culture mixture was added to the vehicle control and blank control wells. […] The following procedure was performed according to the instructions of Promega CellTiter-Glo luminescence cell viability assay kit (Promega-G7573). […] The cell plate was wrapped with aluminum foil to keep out of light. (7) The plate was shaken on an orbital shaker for 2 min to induce cell lysis. (8) The culture plate was placed at room temperature for 10 min to stabilize the luminescence signals. (9) The luminescence signals were detected on 2104 EnVision plate reader. […] Inhibition rates of compounds at different concentrations were calculated in Excel, followed by plotting the inhibition curves and calculating relevant parameters including minimum inhibition rate (%), maximum inhibition rate (%) and IC50 using GraphPad Prism software.

NCI-H929 = assay: Antiproliferative effect in myeloma cell line NCI-H929 (CellTiter-Glo); format: cell-based; settings: Homo sapiens, 120 h, NCI-H929 cells, 5 days of compound co-incubation
Description: as §1

[1] = Pharmacokinetic evaluation of compounds in mice; settings: male, C57BL, mouse, in vivo
Source text: (§2) The test animals in the study were C57BL male mice, and the LC/MS/MS method was used to quantitatively determine the drug concentration in the plasma of the mice at different time points after intravenous injection or oral administration of the test compounds and the reference compound, thus evaluating the pharmacokinetic characteristics of the test drugs in the mice.
C57Balb/C (C57) mice (male, 20-30 g, 7-10 weeks old, Beijing Vital River or Shanghai SLAC).
Clear or suspended solution of the test compound was injected into C57 mice (overnight fasting) via the tail vein or administered intragastrically to C57 mice (overnight fasting). For intravenous injection, […] of blood was each collected by jugular vein puncture at 0 h (before injection) and 0.0833 h, 0.25 h, 0.5 h, 1 h, 2 h, 4 h, 6 h, 8 h and 24 h (after injection), and then placed in an anticoagulation tube added with EDTA-K2 (Jiangsu KANGJIAN Medical Apparatus Co., Ltd.), and the mixture was thoroughly vortex-mixed at 4° C. and centrifuged at 13000 rpm for 10 min; for intragastric administration, blood was collected by jugular vein puncture at 0 h (before administration) and 0.5 h, 1 h, 2 h, 4 h, 6 h, 8 h and 24 h (after administration), and then placed in an anticoagulation tube added with EDTA-K2 (Jiangsu KANGJIAN Medical Apparatus Co., Ltd.), and the mixture was thoroughly vortex-mixed and centrifuged at 13000 rpm for 10 min. The plasma concentration was measured by LC-MS/MS method, and the relevant pharmacokinetic parameters were calculated by WinNonlin™ Version 6.3 (Pharsight, Mountain View, Calif.) pharmacokinetic software using non-compartmental model linear logarithmic trapezoid method.

[2] = Pharmacokinetic evaluation of compounds in rats; format: in vivo, SD male rats; settings: for clearance / half-life / bioavailability: male, Sprague Dawley, rat, plasma; for bioavailability: oral, intragastric administration 10 mg/kg vs intravenous 2 mg/kg, read-out: Bioavailability F
Source text: as §2, with “SD” for “C57BL”, “rats,” for “mice,”, “rats” for “mice”, “rats.” for “mice.”
Sprague Dawley (SD) rats (male, 200-300 g, 7-10 weeks old, Beijing Vital River or Shanghai SLAC).
Clear solution of the test compound was injected into SD rats (overnight fasting) via the tail vein or administered intragastrically to SD rats (overnight fasting). For intravenous injection, 200 μL of blood was each collected by jugular vein puncture at 0 h (before injection) and 0.0833 h, 0.25 h, 0.5 h, 1 h, 2 h, 4 h, 6 h, 8 h and 24 h (after injection), and then placed in an anticoagulation tube added with EDTA-K2 (Jiangsu KANGJIAN Medical Apparatus Co., Ltd.), and the mixture was thoroughly vortex-mixed at 4° C. and centrifuged at 13000 rpm for 10 min; for intragastric administration, blood was collected by jugular veinpuncture at 0 h (before administration) and 0.5 h, 1 h, 2 h, 4 h, 6 h, 8 h and 24 h (after administration), and then placed in an anticoagulation tube added with EDTA-K2 (Jiangsu KANGJIAN Medical Apparatus Co., Ltd.), and the mixture was thoroughly vortex-mixed and centrifuged at 13000 rpm for 10 min. The plasma concentration was measured by LC-MS/MS method, and the relevant pharmacokinetic parameters were calculated by WinNonlin™ Version 6.3 (Pharsight, Mountain View, Calif.) pharmacokinetic software using non-compartmental model linear logarithmic trapezoid method.

[3] = system: human myeloma MM.1S cells; assay: In vivo pharmacodynamic study in subcutaneous xenograft tumor CB-17 SCID model of human myeloma MM.1S cells; set-up: species or system CB-17 SCID mice; settings: for Tumor volume (Day 0): Day 0 (baseline at grouping), 5 mg/kg oral twice daily; for Tumor volume (Day 24) / TGI (Day 24): Day 24, 5 mg/kg oral twice daily; for TGI (Day 24): tumor growth inhibition vs vehicle control
Description: Cell culturing: human multiple myeloma cells MM.1S (ATCC® CRL-2974™) were cultured in vitro, in a semi-suspension manner, with an ATCC-formulated RPMI-1640 medium containing 10% fetal calf serum, 100 U/mL penicillin and 100 μg/mL streptomycin in an incubator at 37° C./5% CO2. Passages were performed twice a week.
At a required number, the cells were taken, counted and inoculated.
Animals: CB-17 SCID mice, female, 6-8 weeks old, weight of 18-20 g.
0.2 mL (5×10^6 cells) of MM.1S cells (along with matrigel in a volume ratio of 1:1) was subcutaneously inoculated on the right back of each mouse, and the mice were divided into groups for administration after the mean tumor volume was approximately 130 mm^3. Seven days constitute an administration cycle, twice daily with a 12 h interval, and the test compound was orally administered for a total of four cycles. Test compounds WX009 and WX023 were administered at a dose of 5 mg/kg, tumor volume was measured twice weekly with a two-dimensional caliper, and the volume was measured in cubic millimeters and calculated according to the following formula: V=0.5 a×b2 where a and b are the long and short diameters, respectively, of the tumor. Anti-tumor efficacy was determined by dividing the mean tumor increase volume of compound-treated animals by the mean tumor increase volume of untreated animals.

[4] = intragastric administration 10 mg/kg

SMILES: O=C1CCC(c2noc3ccc4cc(OCCNC5CCOCC5)ccc4c23)C(=O)N1 (stereo not drawn) [Hydrochloride of WX039]
- IC50 (MM.1S): 2.6 nM

SMILES: O=C1CCC(c2noc3ccc4[nH]ccc4c23)C(=O)N1 (stereo not drawn) [WX009]
- Area under plasma concentration-time curve (0-inf) ([1]; iv, 2 mg/kg): 5.34 µM·h
- Area under plasma concentration-time curve (0-inf) ([1]; po, 10 mg/kg): 12.29 µM·h
- Peak concentration ([1]; po, 10 mg/kg): 10.52 µM
- Time to peak ([1]; po, 10 mg/kg): 0.25 h
- half-life ([1]; mice, intravenous injection 2 mg/kg, read-out: Half life (converted)): 53.4 min
- clearance ([1]; mice, intravenous injection 2 mg/kg, read-out: Plasma clearance): 23.2 mL/min/kg
- bioavailability ([1]; mice, oral administration 10 mg/kg vs intravenous 2 mg/kg, read-out: Bioavailability F): 46.1%
- Area under plasma concentration-time curve (0-inf) [2, 4]: 26.34 µM·h
- Peak concentration [2, 4]: 12.75 µM
- Time to peak [2, 4]: 0.50 h
- Area under plasma concentration-time curve (0-inf) ([2]; intravenous injection 2 mg/kg): 7.92 µM·h
- clearance ([2]; intravenous injection 2 mg/kg): 15.9 mL/min/kg
- half-life ([2]; intravenous injection 2 mg/kg): 54 min
- bioavailability [2]: 66.5%
- Tumor volume (Day 0) [3]: 131 ± 12 mm^3
- Tumor volume (Day 24) [3]: 14 ± 5 mm^3
- TGI (Day 24) [3]: 105%

SMILES: COc1ccc2c(ccc3onc(C4CCC(=O)NC4=O)c32)c1 (stereo not drawn) [WX013]
- IC50 (MM.1S): 4.5 nM

SMILES: O=C1CCC(c2noc3ccc4cc(OCCN5CCOCC5)ccc4c23)C(=O)N1 (stereo not drawn) [WX023]
- bioavailability [1]: 100%
- Area under plasma concentration-time curve (0-inf) ([1]; iv, 2 mg/kg): 6.87 µM·h
- clearance ([1]; iv, 2 mg/kg): 11.8 mL/min/kg
- half-life ([1]; iv, 2 mg/kg): 202 min
- Area under plasma concentration-time curve (0-inf) ([1]; po, 10 mg/kg): 34.40 µM·h
- Peak concentration ([1]; po, 10 mg/kg): 17.50 µM
- Time to peak ([1]; po, 10 mg/kg): 0.25 h
- IC50 (NCI-H929): 10.3 nM
- Area under plasma concentration-time curve (0-inf) [2, 4]: 19.69 µM·h
- Peak concentration [2, 4]: 3.08 µM
- Time to peak [2, 4]: 0.75 h
- Area under plasma concentration-time curve (0-inf) ([2]; intravenous injection 2 mg/kg): 3.76 µM·h
- clearance ([2]; intravenous injection 2 mg/kg): 21.7 mL/min/kg
- half-life ([2]; intravenous injection 2 mg/kg): 74.4 min
- bioavailability [2]: 73.7%
- Tumor volume (Day 0) [3]: 130 ± 8 mm^3
- Tumor volume (Day 24) [3]: 15 ± 4 mm^3
- TGI (Day 24) [3]: 105%
- IC50 (MM.1S): 6.4 nM

SMILES: CN(C)CCOc1ccc2c(ccc3onc(C4CCC(=O)NC4=O)c32)c1 (stereo not drawn) [WX015]
- IC50 (MM.1S): 3.8 nM

Further lines, results first:

- IC50 (MM.1S): 3.4 nM
SMILES: O=C1CCC(c2noc3ccc4cc(CO)ccc4c23)C(=O)N1 (stereo not drawn) [WX061]

- IC50 (NCI-H929): 19.1 nM
SMILES: O=C1CCC(c2noc3cc4occc4cc23)C(=O)N1 (stereo not drawn) [WX005]

- IC50 (MM.1S): 3.4 nM
SMILES: O=C1CCC(c2noc3ccc4cc(OCCN5CCCC5)ccc4c23)C(=O)N1 (stereo not drawn) [WX027]

- IC50 (MM.1S): 2 nM
SMILES: O=C1CCC(c2noc3ccc4ccoc4c23)C(=O)N1 (stereo not drawn) [WX006]

- IC50 (NCI-H929): 21.2 nM
- IC50 (MM.1S): 6.6 nM
SMILES: O=C1CCC(c2noc3ccc4ccccc4c23)C(=O)N1 (stereo not drawn) [WX004]
